SMILES strings stand for the structures.

Our source for the EC50 values is patent US8748415B2 (priority 2011, dated 2014).

The test system of the test is recombinant NL4-3 virus (Renilla luciferase in nef, Gag P373S). Put plainly: HIV cell culture assay (luciferase activity in MT-2 cells infected with NLRluc recombinant virus). It is filed as cell-based. The note with it: NL43, MT-2 cells infected 4-5 days with NLRluc recombinant virus, class symbol. In outline:
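MT-2 cells in RPMI/10% FBS were infected with recombinant NL4-3 (NLRluc), produced by 293T transfection and titered in MT-2 by luciferase. Serial inhibitor dilutions were present throughout a 4–5 day infection. Antiviral activity was quantified as Renilla luciferase signal via a modified Dual Luciferase read.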
In general, EC50 refers to the concentration at which the effect is half-maximal. For `C=C(C)[C@@H]1CC[C@]2(CNC(=O)CCN(C)C)CC[C@]3(C)[C@H](CC[C@@H]4[C@@]5(C)CC=C(c6ccc(C(=O)O)cc6)C(C)(C)[C@@H]5CC[C@]43C)[C@@H]12` [Example 142, 4-((1R,3aS,5aR,5bR,7aR,11aS,11bR,13aR,13bR)-3a-((3-(dimethylamino)propanamido)methyl)-5a,5b,8,8,11a-pentamethyl-1-(prop-1-en-2-yl)-2,3,3a,4,5,5a,5b,6,7,7a,8,11,11a,11b,12,13,13a,13b-octadecahydro-1H-cyclopenta[a]chrysen-9-yl)benzoic acid], the EC50 is < 100 nM.
As to `C=C(C)[C@@H]1CC[C@]2(CNC(=O)c3cccc(C(=O)O)c3)CC[C@]3(C)[C@H](CC[C@@H]4[C@@]5(C)CC=C(c6ccc(C(=O)O)cc6)C(C)(C)[C@@H]5CC[C@]43C)[C@@H]12` [Example 143, 3-(((1R,3aS,5aR,5bR,7aR,11aS,11bR,13aR,13bR)-9-(4-carboxyphenyl)-5a,5b,8,8,11a-pentamethyl-1-(prop-1-en-2-yl)-2,3,3a,4,5,5a,5b,6,7,7a,8,11,11a,11b,12,13,13a,13b-octadecahydro-1H-cyclopenta[a]chrysen-3a-yl)methylcarbamoyl)benzoic acid], the EC50 is < 100 nM.
The result for `C=C(C)[C@@H]1CC[C@]2(CNC(=O)c3ccc(S(N)(=O)=O)cc3)CC[C@]3(C)[C@H](CC[C@@H]4[C@@]5(C)CC=C(c6ccc(C(=O)O)cc6)C(C)(C)[C@@H]5CC[C@]43C)[C@@H]12` [Example 144, 4-((1R,3aS,5aR,5bR,7aR,11aS,11bR,13aR,13bR)-5a,5b,8,8,11a-pentamethyl-1-(prop-1-en-2-yl)-3a((4-sulfamoylbenzamido)methyl)-2,3,3a,4,5,5a,5b,6,7,7a,8,11,11a,11b,12,13,13a,13b-octadecahydro-1H-cyclopenta[a]chrysen-9-yl)benzoic acid] reads < 100 nM.
The result for `C=C(C)[C@@H]1CC[C@]2(CNC(=O)CN3CCS(=O)(=O)CC3)CC[C@]3(C)[C@H](CC[C@@H]4[C@@]5(C)CC=C(c6ccc(C(=O)O)cc6)C(C)(C)[C@@H]5CC[C@]43C)[C@@H]12` [Example 145, 4-((1R,3aS,5aR,5bR,7aR,11aS,11bR,13aR,13bR)-3a-((((1,1-dioxido-4-thiomorpholinyl)acetyl)amino)methyl)-1-isopropenyl-5a,5b,8,8,11a-pentamethyl-2,3,3a,4,5,5a,5b,6,7,7a,8,11,11a,11b,12,13,13a,13b-octadecahydro-1H-cyclopenta[a]chrysen-9-yl)benzoic acid] reads < 100 nM.
The result for `C=C(C)[C@@H]1CC[C@]2(CNC(=O)CCN3CCS(=O)(=O)CC3)CC[C@]3(C)[C@H](CC[C@@H]4[C@@]5(C)CC=C(c6ccc(C(=O)O)cc6)C(C)(C)[C@@H]5CC[C@]43C)[C@@H]12` [Example 146, 4-((1R,3aS,5aR,5bR,7aR,11aS,11bR,13aR,13bR)-3a-(((3-(1,1-dioxido-4-thiomorpholinyl)propanoyl)amino)methyl)-1-isopropenyl-5a,5b,8,8,11a-pentamethyl-2,3,3a,4,5,5a,5b,6,7,7a,8,11,11a,11b,12,13,13a,13b-octadecahydro-1H-cyclopenta[a]chrysen-9-yl)benzoic acid] reads < 100 nM.
Regarding `C=C(C)[C@@H]1CC[C@]2(CNC(=O)CN3CCCCS3(=O)=O)CC[C@]3(C)[C@H](CC[C@@H]4[C@@]5(C)CC=C(c6ccc(C(=O)O)cc6)C(C)(C)[C@@H]5CC[C@]43C)[C@@H]12` [Example 147, 4-((1R,3aS,5aR,5bR,7aR,11aS,11bR,13aR,13bR)-3a-((((1,1-dioxido-1,2-thiazinan-2-yl)acetyl)amino)methyl)-1-isopropenyl-5a,5b,8,8,11a-pentamethyl-2,3,3a,4,5,5a,5b,6,7,7a,8,11,11a,11b,12,13,13a,13b-octadecahydro-1H-cyclopenta[a]chrysen-9-yl)benzoic acid], the EC50 was < 100 nM.
The figure for `C=C(C)[C@@H]1CC[C@]2(CNC(=O)CN(C)C)CC[C@]3(C)[C@H](CC[C@@H]4[C@@]5(C)CC=C(c6ccc(C(=O)O)cc6)C(C)(C)[C@@H]5CC[C@]43C)[C@@H]12` [Example 148, 4-((1R,3aS,5aR,5bR,7aR,11aS,11bR,13aR,13bR)-3a-((2-(dimethylamino)acetamido)methyl)-5a,5b,8,8,11a-pentamethyl-1-(prop-1-en-2-yl)-2,3,3a,4,5,5a,5b,6,7,7a,8,11,11a,11b,12,13,13a,13b-octadecahydro-1H-cyclopenta[a]chrysen-9-yl)benzoic acid] is < 100 nM; for `C=C(C)[C@@H]1CC[C@]2(CNC(=O)[C@@H]3CCCN3C)CC[C@]3(C)[C@H](CC[C@@H]4[C@@]5(C)CC=C(c6ccc(C(=O)O)cc6)C(C)(C)[C@@H]5CC[C@]43C)[C@@H]12` [Example 150, 4-((1R,3aS,5aR,5bR,7aR,11aS,11bR,13aR,13bR)-5a,5b,8,8,11a-pentamethyl-3a-(((S)-1-methylpyrrolidine-2-carboxamido)methyl)-1-(prop-1-en-2-yl)-2,3,3a,4,5,5a,5b,6,7,7a,8,11,11a,11b,12,13,13a,13b-octadecahydro-1H-cyclopenta[a]chrysen-9-yl)benzoic acid] it is < 100 nM.
As for `C=C(C)[C@@H]1CC[C@]2(CNC(=O)[C@H]3CCCN3C)CC[C@]3(C)[C@H](CC[C@@H]4[C@@]5(C)CC=C(c6ccc(C(=O)O)cc6)C(C)(C)[C@@H]5CC[C@]43C)[C@@H]12` [Example 151, 4-((1R,3aS,5aR,5bR,7aR,11aS,11bR,13aR,13bR)-5a,5b,8,8,11a-pentamethyl-3a-(((R)-1-methylpyrrolidine-2-carboxamido)methyl)-1-(prop-1-en-2-yl)-2,3,3a,4,5,5a,5b,6,7,7a,8,11,11a,11b,12,13,13a,13b-octadecahydro-1H-cyclopenta[a]chrysen-9-yl)benzoic acid], the half-maximal effective concentration (EC50) is < 100 nM.
On to `C=C(C)[C@@H]1CC[C@]2(CNC(=O)C(F)(F)C(=O)NCCN(C)C)CC[C@]3(C)[C@H](CC[C@@H]4[C@@]5(C)CC=C(c6ccc(C(=O)O)cc6)C(C)(C)[C@@H]5CC[C@]43C)[C@@H]12` [Example 152, 4-((1R,3aS,5aR,5bR,7aR,11aS,11bR,13aR,13bR)-3a-((3-(2-(dimethylamino)ethylamino)-2,2-difluoro-3-oxopropanamido)methyl)-5a,5b,8,8,11a-pentamethyl-1-(prop-1-en-2-yl)-2,3,3a,4,5,5a,5b,6,7,7a,8,11,11a,11b,12,13,13a,13b-octadecahydro-1H-cyclopenta[a]chrysen-9-yl)benzoic acid], for which the EC50 was < 100 nM.
The result for `C=C(C)[C@@H]1CC[C@]2(CNC(=O)C(F)(F)C(=O)O)CC[C@]3(C)[C@H](CC[C@@H]4[C@@]5(C)CC=C(c6ccc(C(=O)O)cc6)C(C)(C)[C@@H]5CC[C@]43C)[C@@H]12` [Example 153, 4-((1R,3aS,5aR,5bR,7aR,11aS,11bR,13aR,13bR)-3a-((2-carboxy-2,2-difluoroacetamido)methyl)-5a,5b,8,8,11a-pentamethyl-1-(prop-1-en-2-yl)-2,3,3a,4,5,5a,5b,6,7,7a,8,11,11a,11b,12,13,13a,13b-octadecahydro-1H-cyclopenta[a]chrysen-9-yl)benzoic acid] reads > 100 nM.
